Data taken from US20150307938A1, “METHOD TO IDENTIFY A NOVEL CLASS OF IMMUNOLOGIC ADJUVANTS” (Lancell, L.L.C., priority 2011, published 2015).

Test system: skin
Test: Affymetrix microarray of skin, DBP-4 hr and analogs vs. untreated; gene selection by log-2 fold change, Wilcoxon, Kendall tau (Tables 8, 9)
Assay type: in vivo, mouse

CCN(CC)C(=O)c1cccc(C)c1 [DEET, N,N-diethyl-toluamide]
Log2 Expression Level (gene #1 of Table 8): 6.74 | Log2 Expression Level (gene #2 of Table 8): 6.44 | Log2 Expression Level (gene #3 of Table 8): 9.66 | Log2 Expression Level (gene #4 of Table 8): 9.66 | Log2 Expression Level (gene #5 of Table 8): 8.20 | Log2 Expression Level (gene #6 of Table 8): 7.42 | Log2 Expression Level (gene #7 of Table 8): 6.76 | Log2 Expression Level (gene #8 of Table 8): 7.42 | Log2 Expression Level (gene #9 of Table 8): 7.42 | Log2 Expression Level (gene #10 of Table 8): 7.42 | Log2 Expression Level (gene #11 of Table 8): 6.76 | Log2 Expression Level (gene #12 of Table 8): 6.76 | Log2 Expression Level (gene #13 of Table 8): 6.76 | Log2 Expression Level (gene #14 of Table 8): 5.31 | Log2 Expression Level (gene #15 of Table 8): 5.31 | Log2 Expression Level (gene #16 of Table 8): 7.68 | Log2 Expression Level (gene #17 of Table 8): 9.60 | Log2 Expression Level (gene #18 of Table 8): 9.60 | Log2 Expression Level (gene #19 of Table 8): 10.04 | Log2 Expression Level (gene #20 of Table 8): 11.87 | Log2 Expression Level (gene #21 of Table 8): 9.61 | Log2 Expression Level (gene #22 of Table 8): 8.47 | Log2 Expression Level (gene #23 of Table 8): 7.75 | Log2 Expression Level (gene #24 of Table 8): 8.21 | Log2 Expression Level (gene #25 of Table 8): 8.21 | Log2 Expression Level (gene #26 of Table 8): 8.83 | Log2 Expression Level (gene #27 of Table 8): 8.83 | Log2 Expression Level (gene #28 of Table 8): 8.83 | Log2 Expression Level (gene #29 of Table 8): 7.20 | Log2 Expression Level (gene #30 of Table 8): 9.06 | Log2 Expression Level (gene #31 of Table 8): 9.06 | Log2 Expression Level (gene #32 of Table 8): 9.06 | Log2 Expression Level (gene #33 of Table 8): 6.10 | Log2 Expression Level (gene #34 of Table 8): 7.43 | Log2 Expression Level (gene #35 of Table 8): 7.43 | Log2 Expression Level (gene #36 of Table 8): 9.66 | Log2 Expression Level (gene #37 of Table 8): 9.66 | Log2 Expression Level (gene #38 of Table 8): 9.66 | Log2 Expression Level (gene #39 of Table 8): 8.11 | Log2 Expression Level (gene #40 of Table 8): 8.22 | Log2 Expression Level (gene #41 of Table 8): 8.43 | Log2 Expression Level (gene #42 of Table 8): 7.97 | Log2 Expression Level (gene #43 of Table 8): 7.97 | Log2 Expression Level (gene #44 of Table 8): 8.43 | Log2 Expression Level (gene #45 of Table 8): 7.97 | Log2 Expression Level (gene #46 of Table 8): 8.43 | Log2 Expression Level (gene #47 of Table 8): 9.23 | Log2 Expression Level (gene #48 of Table 8): 9.23 | Log2 Expression Level (gene #49 of Table 8): 9.23 | Log2 Expression Level (gene #50 of Table 8): 10.17 | Log2 Expression Level (gene #51 of Table 8): 8.15 | Log2 Expression Level (gene #52 of Table 8): 10.64 | Log2 Expression Level (gene #53 of Table 8): 9.22 | Log2 Expression Level (gene #54 of Table 8): 10.01 | Log2 Expression Level (gene #55 of Table 8): 8.18 | Log2 Expression Level (gene #56 of Table 8): 10.41 | Log2 Expression Level (gene #57 of Table 8): 9.06 | Log2 Expression Level (gene #58 of Table 8): 9.46 | Log2 Expression Level (gene #59 of Table 8): 8.46 | Log2 Expression Level (gene #60 of Table 8): 7.24 | Log2 Expression Level (gene #61 of Table 8): 12.16 | Log2 Expression Level (gene #62 of Table 8): 8.52 | Log2 Expression Level (gene #63 of Table 8): 11.76 | Log2 Expression Level (gene #64 of Table 8): 11.40 | Log2 Expression Level (gene #65 of Table 8): 8.25 | Log2 Expression Level (gene #66 of Table 8): 9.07 | Log2 Expression Level (gene #67 of Table 8): 5.71 | Log2 Expression Level (gene #68 of Table 8): 10.87 | Log2 Expression Level (gene #69 of Table 8): 7.06 | Log2 Expression Level (gene #70 of Table 8): 5.72 | Log2 Expression Level (gene #71 of Table 8): 7.84 | Log2 Expression Level (gene #72 of Table 8): 9.65 | Log2 Expression Level (gene #73 of Table 8): 8.88 | Log2 Expression Level (gene #74 of Table 8): 7.48 | Log2 Expression Level (gene #75 of Table 8): 10.04 | Log2 Expression Level (gene #76 of Table 8): 5.76 | Log2 Expression Level (gene #77 of Table 8): 9.62 | Log2 Expression Level (gene #78 of Table 8): 9.85 | Log2 Expression Level (gene #79 of Table 8): 8.03 | Log2 Expression Level (gene #80 of Table 8): 13.18 | Log2 Expression Level (gene #81 of Table 8): 6.94 | Log2 Expression Level (gene #82 of Table 8): 6.28 | Log2 Expression Level (gene #83 of Table 8): 8.09 | Log2 Expression Level (gene #84 of Table 8): 8.70 | Log2 Expression Level (gene #85 of Table 8): 9.57 | Log2 Expression Level (gene #86 of Table 8): 8.02 | Log2 Expression Level (gene #87 of Table 8): 11.32 | Log2 Expression Level (gene #88 of Table 8): 10.03 | Log2 Expression Level (gene #89 of Table 8): 6.25 | Log2 Expression Level (gene #90 of Table 8): 11.13 | Log2 Expression Level (gene #91 of Table 8): 9.01 | Log2 Expression Level (gene #92 of Table 8): 7.14 | Log2 Expression Level (gene #93 of Table 8): 10.13 | Log2 Expression Level (gene #94 of Table 8): 9.19 | Log2 Expression Level (gene #95 of Table 8): 7.20 | Log2 Expression Level (gene #96 of Table 8): 9.02 | Log2 Expression Level (gene #97 of Table 8): 5.86 | Log2 Expression Level (gene #98 of Table 8): 6.82 | Log2 Expression Level (gene #99 of Table 8): 10.05 | Log2 Expression Level (gene #100 of Table 8): 8.86
